# Laboratory results taken from patent US12492173B2, “Herbicidal substituted N-tetrazolyl aryl carboxamides” (Bayer Aktiengesellschaft, priority 2019, dated 2025).
# Tests used:
# Type in all cases: in vivo
# Polygonum convolvulus = assay: Pre-emergence herbicidal action, POLCO; conditions: dosage 320 g/ha; for herbicidal activity POLCO: scored visually after 3 weeks vs untreated controls (100% = plants have died)
# Method in brief: (§1)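 Pre-emergence soil spray over sandy loam-covered seeds; greenhouse 3 weeks; % visual damage (0% = control, 100% = dead).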
# Veronica persica = assay: Post-emergence herbicidal action, VERPE; parameters: key: % herbicidal action vs untreated; 100 = plants died, 0 = like control
# Method in brief: (§2)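 Percent herbicidal effect was rated visually about 3 weeks after treatment, relative to untreated plants (0% = like control, 100% = dead). Compounds, formulated as WP or EC, went on as aqueous spray (600–800 l/ha, 0.2% wetting agent) to one-leaf-stage plants 2–3 weeks post-sowing in sandy loam.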
# Viola tricolor = assay: Pre-emergence herbicidal action, VIOTR; parameters: key to Herbicidal action against VIOTR: % activity: 100 = plants have died, 0 = like control plants; conditions: for herbicidal action VIOTR / herbicidal activity VIOTR: dosage 320 g/ha; for herbicidal activity VIOTR: scored visually after 3 weeks vs untreated controls (100% = plants have died)
# Method in brief: as §1
# Matricaria inodora [1] = assay: Pre-emergence herbicidal action, MATIN; parameters: key to Herbicidal action against MATIN: % activity: 100 = plants have died, 0 = like control plants; conditions: for herbicidal action MATIN / herbicidal activity MATIN: dosage 320 g/ha; for herbicidal activity MATIN: scored visually after 3 weeks vs untreated controls (100% = plants have died); for Herbicidal action against MATIN: comparative experiment
# Method in brief: as §1
# Matricaria inodora [2] = assay: Post-emergence herbicidal action, MATIN; parameters: key: % herbicidal action vs untreated; 100 = plants died, 0 = like control
# Method in brief: as §2
# Setaria viridis = assay: Pre-emergence herbicidal action, SETVI; parameters: key to Herbicidal action against SETVI: % activity: 100 = plants have died, 0 = like control plants; conditions: for herbicidal action SETVI / herbicidal activity SETVI: dosage 320 g/ha; for herbicidal activity SETVI: scored visually after 3 weeks vs untreated controls (100% = plants have died); for Herbicidal action against SETVI: comparative experiment
# Method in brief: as §1
# [3] = comparative experiment, post-emergence, 20 g of a.i./ha
SMILES,herbicidal action VERPE (Veronica persica; Dosage 80 g/ha),herbicidal action VIOTR (Viola tricolor),herbicidal action MATIN (Matricaria inodora [1]),herbicidal action MATIN (Matricaria inodora [2]; Dosage 80 g/ha),herbicidal action SETVI (Setaria viridis),also measured
Cc1ccc(C(=O)Nc2nnnn2C)c(Cl)c1C[S+](C)[O-] (racemic) [Example 1-288],100,90%,100%,100,,herbicidal action POLCO (Polygonum convolvulus): 80%
CCS(=O)(=O)Cc1c(C(F)(F)F)ccc(C(=O)Nc2nnnn2C)c1C [Example 1-88],100,100%,100%,90,100%,
COc1c(C(=O)Nc2nnnn2C)ccc(C(F)(F)F)c1C[S+](C)[O-] (stereo not shown) [Example 1-135],100,90%,90%,100,,
CSCc1c(C)ccc(C(=O)Nc2nnnn2C)c1Cl [Example 1-287],100,90%,90%,100,90%,
COCCSCc1c(C(F)(F)F)ccc(C(=O)Nc2nnnn2C)c1Cl [Example 1-305],,,,,,"herbicidal action VERPE (Veronica persica; post-emergence, dosage 80 g/ha): 90%; herbicidal activity VIOTR (Viola tricolor): 100%; herbicidal activity SETVI (Setaria viridis): 100%; herbicidal activity MATIN (Matricaria inodora [1]): 100%; herbicidal action MATIN (Matricaria inodora [2]; post-emergence, dosage 80 g/ha): 100%"
Cn1nnnc1NC(=O)c1ccc(C(F)(F)F)c(CSCC(F)(F)F)c1Cl [Example 1-311],100,,,100,,herbicidal activity VIOTR (Viola tricolor): 100%; herbicidal activity SETVI (Setaria viridis): 100%; herbicidal activity MATIN (Matricaria inodora [1]): 100%
CSCc1c(C(F)F)ccc(C(=O)Nc2nnnn2C)c1Cl [Example 1-320],100,,,,,"herbicidal activity POLCO (Polygonum convolvulus): 90%; Herbicidal action against VERPE (Veronica persica; comparative experiment, post-emergence, 5 g of a.i./ha): 100; herbicidal activity VIOTR (Viola tricolor): 100%; herbicidal activity SETVI (Setaria viridis): 100%; herbicidal activity MATIN (Matricaria inodora [1]): 100%"
CSCc1c(I)ccc(C(=O)Nc2nnnn2C)c1Cl [Example 1-362],,,,,,"herbicidal action VERPE (Veronica persica; post-emergence, dosage 80 g/ha): 100%; herbicidal activity VIOTR (Viola tricolor): 100%; Herbicidal action against SETVI (Setaria viridis; 20 g of a.i./ha): 90; herbicidal activity SETVI (Setaria viridis): 100%; Herbicidal action against MATIN (Matricaria inodora [1]; 20 g of a.i./ha): 70; herbicidal activity MATIN (Matricaria inodora [1]): 100%; herbicidal action MATIN (Matricaria inodora [2]; post-emergence, dosage 80 g/ha): 100%"
CSCc1c(Cl)ccc(C(=O)Nc2nnnn2C)c1Cl [Example 1-559],,100%,90%,,80%,"herbicidal action VERPE (Veronica persica; post-emergence, dosage 80 g/ha): 100%; herbicidal action MATIN (Matricaria inodora [2]; post-emergence, dosage 80 g/ha): 100%"
COc1c(C(=O)Nc2nnnn2C)ccc(Cl)c1CSC [Example 1-570],,80%,100%,,,"herbicidal action POLCO (Polygonum convolvulus): 80%; Herbicidal action against VERPE (Veronica persica; post-emergence, dosage 80 g/ha): 90; Herbicidal action against VIOTR (Viola tricolor; comparative experiment, 20 g of a.i./ha): 70; Herbicidal action against MATIN (Matricaria inodora [2]; post-emergence, dosage 80 g/ha): 90"
CCn1nnnc1NC(=O)c1ccc(C(F)(F)F)c(CS(=O)(=O)CC)c1C [Example 2-88],100,100%,100%,90,100%,
CCn1nnnc1NC(=O)c1ccc(C(F)F)c(C[S+](C)[O-])c1C (stereo not shown) [Example 2-108],100,100%,100%,100,100%,
CCn1nnnc1NC(=O)c1ccc(S(C)(=O)=O)c(CS(C)(=O)=O)c1Cl [Example 2-280],,90%,90%,,90%,"Herbicidal action against VERPE (Veronica persica; post-emergence, dosage 80 g/ha): 80"
CCn1nnnc1NC(=O)c1ccc(C(F)(F)F)c(CS(=O)(=O)CC)c1Cl [Example 2-301],100,100%,100%,90,100%,
CCn1nnnc1NC(=O)c1ccc(I)c(C[S+](C)[O-])c1Cl (stereo not shown) [Example 2-363],100,,,100,,herbicidal activity VIOTR (Viola tricolor): 100%; herbicidal activity SETVI (Setaria viridis): 100%; herbicidal activity MATIN (Matricaria inodora [1]): 100%
CCn1nnnc1NC(=O)c1ccc(Cl)c(CSC)c1Cl [Example 2-559],100,100%,90%,100,90%,
CCCn1nnnc1NC(=O)c1ccc(S(C)(=O)=O)c(CSC)c1C [Example 3-37],100,100%,90%,90,,
CCCn1nnnc1NC(=O)c1ccc(S(C)(=O)=O)c(CS(C)(=O)=O)c1C [Example 3-39],100,100%,100%,80,80%,
CCCn1nnnc1NC(=O)c1ccc(C(F)(F)F)c(CSC)c1SC [Example 3-161],100,100%,100%,90,90%,
CCCn1nnnc1NC(=O)c1ccc(C(F)(F)F)c(CS(=O)(=O)CC)c1Cl [Example 3-301],80,100%,100%,100,100%,
C=CCSCc1c(C(F)(F)F)ccc(C(=O)Nc2nnnn2CCC)c1Cl [Example 3-308],80,,,100,,herbicidal activity VIOTR (Viola tricolor): 100%; herbicidal activity SETVI (Setaria viridis): 100%; herbicidal activity MATIN (Matricaria inodora [1]): 100%
CCCn1nnnc1NC(=O)c1ccc(C(F)(F)F)c(CSCC(F)(F)F)c1Cl [Example 3-311],80,100%,100%,100,100%,
CCCn1nnnc1NC(=O)c1ccc(C(F)(F)F)c(CSCC2CC2)c1Cl [Example 3-314],,,,,,"herbicidal action VERPE (Veronica persica; post-emergence, dosage 80 g/ha): 100%; herbicidal activity VIOTR (Viola tricolor): 100%; herbicidal activity SETVI (Setaria viridis): 100%; herbicidal activity MATIN (Matricaria inodora [1]): 100%; herbicidal action MATIN (Matricaria inodora [2]; post-emergence, dosage 80 g/ha): 100%"
CCCn1nnnc1NC(=O)c1ccc(C(F)F)c(CS(=O)(=O)CC)c1Cl [Example 3-325],,,,,,herbicidal activity POLCO (Polygonum convolvulus): 100%; herbicidal activity VIOTR (Viola tricolor): 100%; herbicidal activity SETVI (Setaria viridis): 100%; herbicidal activity MATIN (Matricaria inodora [1]): 100%
CCCn1nnnc1NC(=O)c1ccc(I)c(C[S+](C)[O-])c1Cl (stereo not shown) [Example 3-363],100,100%,100%,100,100%,
CCCn1nnnc1NC(=O)c1ccc(C(F)(F)F)c(CS(C)(=O)=O)c1Br [Example 3-382],90,90%,100%,90,,
"CCS(=O)(=O)c1c(C(F)(F)F)ccc(C(=O)Nc2nnnn2C)c1Br [Example V-13, 2-bromo-3-(ethylsulfonyl)-N-(1-methyl-1-1H-tetrazol-5-yl)-4-(trifluoromethyl)benzamide, reference compound]",,,,,,Herbicidal action against VERPE (Veronica persica; [3]): 0; Herbicidal action against SETVI (Setaria viridis; 80 g of a.i./ha): 0; Herbicidal action against MATIN (Matricaria inodora [1]; 80 g of a.i./ha): 0; Herbicidal action against MATIN (Matricaria inodora [2]; [3]): 0
